Experimental data as given in publication PMC7002685, “Inhibition of vascular calcification by inositol phosphates derivatized with ethylene glycol oligomers” (Nature Communications, 2020).
Read-outs that look alike come from different tables or passages of the source.

Assays:
[1] = target: T1, Serotonin (5-Hydroxytryptamine) 5-HT1A (Homo sapiens, UniProt P08908); experiment: Off-target 271110; format: binding
T1 construct: purchased Eurofins Panlabs Discovery Services Taiwan, Ltd
Procedure: (§1) The potential off-target activity of 10 µM (OEG2)2-IP4 was assessed against a panel of 87 enzymes, receptors, or ion channels that are used in standard safety pharmacology screens.
(§2) 3.2. Off-target screening assay
(§3) The experiments were conducted by a contract research organization (Eurofins Panlabs Discovery
(§4) Services Taiwan, Ltd.) and details on the respective assays can be retrieved via the catalog number
(§5) provided in Supplementary Table 11 from the company’s webpage
(§6) (https://www.eurofinsdiscoveryservices.com/). […]

[2] = target: T2, Transporter, Serotonin (5-Hydroxytryptamine) (SERT) (Homo sapiens, UniProt P31645); experiment: Off-target 274030; format: binding
T2 construct: purchased Eurofins Panlabs Discovery Services Taiwan, Ltd
Procedure: as §1, §2, §3, §4, §5, §6

Muscarinic M4 = target: T3, Muscarinic M4 (Homo sapiens, UniProt P08173); experiment: Off-target 252910; format: binding
T3 construct: purchased Eurofins Panlabs Discovery Services Taiwan, Ltd
Procedure: as §1, §2, §3, §4, §5, §6

[3] = PK s.c. in healthy and adenine/high-phosphate-diet (uremic) rats; format: in vivo; conditions: male, Sprague-Dawley, rat, sc; for AUC(0-t): read-out: AUC0-360 (converted)
Procedure: For many drugs, the PK profile depends on the patient’s renal status. Therefore, (OEG2)2-IP4 PK profile was also determined in an adenine and high-phosphate-diet-induced rat model of uremia, in which the compound was administered after serum creatinine levels had increased by fourfold relative to baseline (Fig. 4g, h). […] Similar results were observed following s.c. administration (Supplementary Table 5).
To study PK in uremic animals, male Sprague-Dawley rats (Charles River Laboratories, L’Arbresle, France) were housed two per cage with free access to water and standard chow (rat/mouse maintenance diet, SSNIFF Spezialdiäten GmbH, Soest, Germany) and submitted to a 12-h light/dark cycle. Animals were fed a low-protein (2.5%) diet containing high phosphorus (1.3% phosphorus and 0.7% calcium) and 0.3% adenine to induce uremia (SSNIFF Spezialdiäten GmbH). Control animals were fed same diet but without adenine. Every 10 days, a sample of blood was punctured at the tail vein of each animal. Serum and urine creatinine, calcium, and phosphorus were then assessed using standard colorimetric biochemistry analysis (Cobas Mira, Roche, Basel, Switzerland). When a fourfold increase of creatinine was observed compared to control, the rat was considered uremic and suitable for PK experiments. The method was validated using eight animals on control- and adenine-supplemented diet respectively. For PK studies, on the morning of the experimental day, a catheter was inserted in the right carotid artery under halothane anesthesia. Subsequently, rats were allowed to recover for 3 h and uremic and non-uremic rats, respectively, were assigned to three groups of six rats each. […] Blood aliquots were drawn after drug administration, centrifuged, decanted, and stored at −80 °C until serum drug quantification by LC-MS, as well as analysis of serum creatinine, calcium, and phosphorus (Cobas Mira).
The bioanalytical method for (OEG2)2-IP4 in rat plasma was further optimized, qualified, and applied to the comparative PK study in adenine and high-phosphate diet-induced VC vs. vitamin D-induced VC animals. The LC-MS/MS analyses were carried out using a Dionex Ultimate RSLC ultra-high-pressure liquid chromatography (UHPLC) system (Thermo Fisher Scientific) coupled with a TSQ Quantiva^TM triple quadrupole mass spectrometer. The samples were stored at 5 °C in the autosampler prior to and during the analyses. […] Gradient elution (solvent A, 20 mM ammonium acetate in water (pH 5); solvent B, ACN) was used according to the program reported in Supplementary Table 18. The injection volume was 10 µL. MS/MS parameters (MRM acquisition, cycle time 0.2 s) for (OEG2)2-IP4 are reported in Supplementary Table 19 and the ESI source, working in negative ionization mode, applied the following parameters: static spray voltage 3000 V ion transfer tube and vaporizer temperatures at 400 and 100 °C, respectively; sheath and auxiliary gas (nitrogen) flow rates at 80 and 3 (arbitrary units). For the quantitative determination in rat plasma, product ion m/z 158.9 was selected because it provided the best sensitivity and selectivity. Calibration curve and quality control samples were prepared by adding 2 μL of working solution to 38 μL rat blank K3EDTA plasma (Biochemed, Winchester, VA) and precipitating plasma protein by addition of 120 μL of MeOH including internal standard OEG11-IP5. Samples were vortexed 1 min and centrifuged at (22,000 × g, 4 °C, 10 min). Supernatants (90 μL) were then transferred into a glass vial with insert and injected onto LC-MS/MS system. Both in adenine and high-phosphate diet-induced VC and vitamin D-induced VC rat PK samples were prepared for analysis in an analogous manner as done for spiked samples (assay volume 40 μL). The LLOQ and LOD in rat plasma for (OEG2)2-IP4 were 50 and 10 ng/mL, respectively. The ULOQ and detection was 50,000 ng/mL.

PPARγ = target: T4, PPARγ (Homo sapiens, UniProt P37231); experiment: Off-target 267500; format: binding
T4 construct: purchased Eurofins Panlabs Discovery Services Taiwan, Ltd
Procedure: as §1, §2
The experiments were conducted by a contract research organization (Eurofins Panlabs Discovery Services Taiwan, Ltd.) and details on the respective assays can be retrieved via the catalog number provided in Supplementary Table 11 from the company’s webpage
as §6
At sacrifice the left tibia of animals of the rat model with dietary adenine/high-phosphate-induced uremia and VC was collected, fixed with 70% v/v EtOH and embedded in methyl methacrylate. The trabecular bone compartment is known to be the most metabolic active i.e. actively re-structured bone compartment in CKD. Therefore, histomorphometric and micro-computed tomography (µCT) analysis of bone was performed on the trabecular compartment. Tibial sections were Goldner-stained for histomorphometric analysis of the proximal metaphysis using the AxioVision Release 4.5 software, as […]
described previously5. […]

[4] = serum, 10 mg/kg, 10 mg/kg s.c., Healthy
[5] = serum, 10 mg/kg, 10 mg/kg s.c., Uremic

T2 sequence (P31645 whole entry): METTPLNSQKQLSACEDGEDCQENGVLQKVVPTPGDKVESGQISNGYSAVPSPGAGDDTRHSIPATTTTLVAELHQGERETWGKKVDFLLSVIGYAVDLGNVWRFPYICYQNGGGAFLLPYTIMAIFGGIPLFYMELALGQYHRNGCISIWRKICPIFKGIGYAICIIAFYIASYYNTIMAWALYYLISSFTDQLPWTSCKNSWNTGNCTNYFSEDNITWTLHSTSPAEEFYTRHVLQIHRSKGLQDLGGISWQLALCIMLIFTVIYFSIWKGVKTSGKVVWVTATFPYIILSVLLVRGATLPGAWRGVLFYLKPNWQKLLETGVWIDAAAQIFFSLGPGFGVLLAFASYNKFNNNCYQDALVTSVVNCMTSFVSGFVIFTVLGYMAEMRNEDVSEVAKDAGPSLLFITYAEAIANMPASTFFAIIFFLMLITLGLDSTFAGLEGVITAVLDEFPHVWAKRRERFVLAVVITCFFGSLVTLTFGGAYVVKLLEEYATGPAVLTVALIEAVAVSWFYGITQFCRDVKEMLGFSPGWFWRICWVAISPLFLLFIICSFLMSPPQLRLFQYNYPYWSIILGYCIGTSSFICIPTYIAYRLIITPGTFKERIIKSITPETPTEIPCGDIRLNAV
T1 sequence (P08908 whole entry): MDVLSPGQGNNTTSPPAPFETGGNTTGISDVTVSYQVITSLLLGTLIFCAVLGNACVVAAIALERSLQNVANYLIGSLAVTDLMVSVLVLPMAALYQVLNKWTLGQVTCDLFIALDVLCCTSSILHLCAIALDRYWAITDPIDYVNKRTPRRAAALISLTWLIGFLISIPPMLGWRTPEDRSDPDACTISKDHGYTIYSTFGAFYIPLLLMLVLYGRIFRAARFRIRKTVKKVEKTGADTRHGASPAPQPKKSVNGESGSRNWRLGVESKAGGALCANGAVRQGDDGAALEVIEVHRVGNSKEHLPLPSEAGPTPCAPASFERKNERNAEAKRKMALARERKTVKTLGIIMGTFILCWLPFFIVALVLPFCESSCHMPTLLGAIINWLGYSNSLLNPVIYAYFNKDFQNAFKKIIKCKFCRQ
T4 sequence (P37231 whole entry): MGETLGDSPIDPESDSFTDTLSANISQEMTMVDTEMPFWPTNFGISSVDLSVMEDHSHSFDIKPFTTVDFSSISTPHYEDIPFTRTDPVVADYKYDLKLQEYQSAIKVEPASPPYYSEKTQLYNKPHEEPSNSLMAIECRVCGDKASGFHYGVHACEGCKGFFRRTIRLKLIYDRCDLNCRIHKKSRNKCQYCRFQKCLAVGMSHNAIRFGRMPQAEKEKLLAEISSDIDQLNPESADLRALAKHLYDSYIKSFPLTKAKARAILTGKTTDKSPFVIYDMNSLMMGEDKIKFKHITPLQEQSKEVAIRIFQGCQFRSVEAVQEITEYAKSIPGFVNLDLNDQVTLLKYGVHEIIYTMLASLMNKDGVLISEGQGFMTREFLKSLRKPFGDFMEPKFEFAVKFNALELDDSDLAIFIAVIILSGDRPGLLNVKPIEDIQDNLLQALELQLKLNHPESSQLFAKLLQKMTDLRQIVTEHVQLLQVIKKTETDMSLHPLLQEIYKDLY
T3 sequence (P08173 whole entry): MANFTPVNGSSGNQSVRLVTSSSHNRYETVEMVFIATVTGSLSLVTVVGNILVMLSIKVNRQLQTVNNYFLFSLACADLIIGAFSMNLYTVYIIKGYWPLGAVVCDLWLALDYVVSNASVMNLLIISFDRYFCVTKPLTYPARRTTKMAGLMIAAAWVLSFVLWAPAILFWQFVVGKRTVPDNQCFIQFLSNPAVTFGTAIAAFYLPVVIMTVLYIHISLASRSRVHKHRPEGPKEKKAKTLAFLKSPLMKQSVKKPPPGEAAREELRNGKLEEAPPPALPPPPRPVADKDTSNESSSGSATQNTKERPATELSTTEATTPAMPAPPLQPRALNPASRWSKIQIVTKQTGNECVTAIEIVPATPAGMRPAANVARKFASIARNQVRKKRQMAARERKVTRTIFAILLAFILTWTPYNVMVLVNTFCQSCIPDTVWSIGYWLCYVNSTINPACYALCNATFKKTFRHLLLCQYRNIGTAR

Question: With `COCCOCCO[C@@H]1[C@@H](OP(=O)(O)O)[C@H](OCCOCCOC)[C@@H](OP(=O)(O)O)[C@@H](OP(=O)(O)O)[C@H]1OP(=O)(O)O` [(OEG2)2-IP4, 4,6-Di-O-(methoxy-diethyleneglycol)-myo-inositol-1,2,3,5-tetrakis(phosphate)] as the compound, how does the inhibition at 10 µM [1] read?
Answer: 11%

Question: And the inhibition at 10 µM [2]?
Answer: 2%

Question: What about the inhibition at 10 µM (Muscarinic M4) of the same compound?
Answer: 1%

Question: What about the concentration at 3 h ([3]; plasma, 10 mg/kg, Healthy, s.c., Time 3 h, individual rats, read-out: plasma concentration (Figure 4h)) of the same compound?
Answer: 2.57 µM

Question: And the AUC(0-inf) [3, 4]?
Answer: 19.7 µM·h

Question: What about the MRT [3, 4] of the same compound?
Answer: 1.1 h

Question: What about the half-life [3, 4] of the same compound?
Answer: 1.32 ± 0.45 h

Question: What about the AUC(0-t) [3, 4] of the same compound?
Answer: 19.2 µM·h

Question: What about the AUC(0-inf) [3, 5] of the same compound?
Answer: 37.9 µM·h

Question: What about the MRT [3, 5] of the same compound?
Answer: 2.07 h

Question: And the half-life [3, 5]?
Answer: 2.05 ± 1.07 h

Question: And the AUC(0-t) [3, 5]?
Answer: 31.8 µM·h

Question: What about the Cmax ([3]; serum, 10 mg/kg s.c., Healthy) of the same compound?
Answer: 12 ± 4 µM

Question: What about the inhibition at 10 µM (PPARγ) of the same compound?
Answer: 2%
